Measurements as given in article PMC7481482, “Development of Anthraquinone Derivatives as Ectonucleoside Triphosphate Diphosphohydrolase (NTPDase) Inhibitors With Selectivity for NTPDase2 and NTPDase3” (Frontiers in Pharmacology, 2020).

How the values were obtained:
[1] = biological target: T1, human NTPDase3 (Homo sapiens, UniProt O75355); assay: Malachite green assay, human NTPDase3; format: biochemical; details: 2 μM compound; 100 µM ATP; COS-7 membrane preparation; read-out: % inhibition at 2 μM concentration, NTPDase3
T1 construct: expressed in transfected cells; host or cells: COS-7 cells (membrane preparation)
T1 sequence (O75355 1-529): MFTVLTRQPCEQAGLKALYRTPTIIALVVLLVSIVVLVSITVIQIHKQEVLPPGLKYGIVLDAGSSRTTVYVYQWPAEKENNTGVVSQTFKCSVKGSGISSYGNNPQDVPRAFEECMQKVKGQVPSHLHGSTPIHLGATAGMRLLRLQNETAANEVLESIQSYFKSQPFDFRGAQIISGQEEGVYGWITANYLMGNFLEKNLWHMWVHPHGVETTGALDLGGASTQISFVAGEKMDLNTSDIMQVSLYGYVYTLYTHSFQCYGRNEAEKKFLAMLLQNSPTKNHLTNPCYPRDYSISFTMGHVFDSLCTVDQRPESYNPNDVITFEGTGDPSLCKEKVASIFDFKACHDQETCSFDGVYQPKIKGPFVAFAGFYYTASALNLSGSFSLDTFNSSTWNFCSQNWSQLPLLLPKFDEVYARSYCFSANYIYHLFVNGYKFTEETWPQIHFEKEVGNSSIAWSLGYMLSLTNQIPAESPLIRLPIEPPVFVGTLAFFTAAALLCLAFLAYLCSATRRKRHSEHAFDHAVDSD
In short: (§1)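 COS-7 membranes expressing each NTPDase were preincubated with compound for 5 min at 37 °C, pH 7.4 HEPES buffer with 2 mM CaCl2/1 mM MgCl2. ATP was 50 µM for NTPDase1 and 100 µM for -2, -3, -8; reaction ran 15 min at 37 °C. Released phosphate read by malachite green at 600 nm; screen at 2 µM, IC50 over 0.03–30 µM in 2% DMSO.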

[2] = biological target: T2, human NTPDase8 (Homo sapiens, UniProt Q5MY95); assay: Malachite green assay, human NTPDase8; format: biochemical; details: 2 μM compound; 100 µM ATP; COS-7 membrane preparation; read-out: % inhibition at 2 μM concentration, NTPDase8
T2 construct: expressed in transfected cells; host or cells: COS-7 cells (membrane preparation)
T2 sequence (Q5MY95 1-495): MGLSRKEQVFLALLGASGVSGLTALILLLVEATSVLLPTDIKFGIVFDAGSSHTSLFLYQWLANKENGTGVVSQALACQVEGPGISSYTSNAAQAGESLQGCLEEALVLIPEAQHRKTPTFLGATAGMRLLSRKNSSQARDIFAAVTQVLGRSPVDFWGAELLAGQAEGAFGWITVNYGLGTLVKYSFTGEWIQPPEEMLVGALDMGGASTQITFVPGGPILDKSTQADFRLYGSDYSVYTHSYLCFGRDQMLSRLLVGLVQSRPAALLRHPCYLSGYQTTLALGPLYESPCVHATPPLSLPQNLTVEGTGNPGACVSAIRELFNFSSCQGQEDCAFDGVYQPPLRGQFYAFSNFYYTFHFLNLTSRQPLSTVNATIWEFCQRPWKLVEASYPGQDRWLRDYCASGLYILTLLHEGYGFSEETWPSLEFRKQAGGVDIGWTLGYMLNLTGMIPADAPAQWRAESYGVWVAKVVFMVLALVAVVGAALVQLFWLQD
In short: as §1

[3] = tested on: rat CD73; design: method as in Baqi et al., 2010; details: ref Baqi et al., 2010; cited from earlier work
[4] = tested on: rat NTPDase2; details: rat enzyme; ref Baqi et al., 2009b; cited from earlier work

- inhibition at 2 µM [1]: -4%
- inhibition at 2 µM [2]: 9%
Structure (SMILES): Nc1c(S(=O)(=O)O)cc(Nc2cccc3ccccc23)c2c1C(=O)c1ccccc1C2=O [Compound 15]
- IC50 [3]: 530 nM
- IC50 [4]: > 100000 nM
